Measurements published in PubChem BioAssay AID1918994 (Molecular Pharmacology Branch, DTP, NCI, 2023).

These compounds were tested on 292921-168-R-J2-PDC complex spheroid growth (assay: Anticancer human tumor 292921-168-R-J2-PDC patient-derived pancreatic carcinoma cell line growth inhibition [AhR]). Conditions: second compound 3.16 µM; first compound 0.316 µM; active compounds read low.
Summary of the method: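 Spheroids combined tumor cells with HUVEC endothelial cells and human MSCs as stroma. AhR antagonists were paired with standard or investigational drugs, each dosed in half-log steps down from near clinical Cmax, or from 10 microM where Cmax was unknown.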
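Note: spheroids exposed to compounds for seven days after three days of growth.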

Row | Compound | viability, T/C
1 | COc1cc(C2c3cc4c(cc3C(OC3OC5COC(C)OC5C(O)C3O)C3COC(=O)C23)OCO4)cc(OC)c1O (stereo not drawn) + Cc1ccccc1N=Nc1ccc(NC(=O)c2ccnn2C)c(C)c1 | 40.5%
2 | COc1cccc2c1C(=O)c1c(O)c3c(c(O)c1C2=O)CC(O)(C(=O)CO)CC3OC1CC(N)C(O)C(C)O1 (stereo not drawn) + Cc1ccccc1N=Nc1ccc(NC(=O)c2ccnn2C)c(C)c1 | 1.59%
3 | Nc1ccn(C2OC(CO)C(O)C2(F)F)c(=O)n1 (stereo not drawn) + Cc1ccccc1N=Nc1ccc(NC(=O)c2ccnn2C)c(C)c1 | 7.3%
4 | Nc1ncn(C2CC(O)C(CO)O2)c(=O)n1 (stereo not drawn) + Cc1ccccc1N=Nc1ccc(NC(=O)c2ccnn2C)c(C)c1 | 63%

Same assay, conditions: second compound 3.16 µM; first compound 1 µM; active compounds read low

Row | Compound | viability, T/C
5 | CC(C)c1c(-c2ccccc2)nc2c(C#N)c[nH]n2c1=O + CC(CO)NC(=O)c1cc(-c2ccc(Cl)cc2)nn(-c2cnn(C)c2)c1=O | 89.8%
6 | COc1cc(C2c3cc4c(cc3C(OC3OC5COC(C)OC5C(O)C3O)C3COC(=O)C23)OCO4)cc(OC)c1O (stereo not drawn) + Cc1ccccc1N=Nc1ccc(NC(=O)c2ccnn2C)c(C)c1 | 25.5%
7 | COc1cccc2c1C(=O)c1c(O)c3c(c(O)c1C2=O)CC(O)(C(=O)CO)CC3OC1CC(N)C(O)C(C)O1 (stereo not drawn) + Cc1ccccc1N=Nc1ccc(NC(=O)c2ccnn2C)c(C)c1 | 5.2%
8 | Nc1ccn(C2OC(CO)C(O)C2(F)F)c(=O)n1 (stereo not drawn) + Cc1ccccc1N=Nc1ccc(NC(=O)c2ccnn2C)c(C)c1 | 10.1%
9 | Nc1ncn(C2CC(O)C(CO)O2)c(=O)n1 (stereo not drawn) + Cc1ccccc1N=Nc1ccc(NC(=O)c2ccnn2C)c(C)c1 | 55.6%

Same assay, conditions: second compound 3.16 µM; first compound 3.16 µM; active compounds read low

Row | Compound | viability, T/C
10 | CC(C)c1c(-c2ccccc2)nc2c(C#N)c[nH]n2c1=O + CC(CO)NC(=O)c1cc(-c2ccc(Cl)cc2)nn(-c2cnn(C)c2)c1=O | 80.8%
11 | COc1cc(C2c3cc4c(cc3C(OC3OC5COC(C)OC5C(O)C3O)C3COC(=O)C23)OCO4)cc(OC)c1O (stereo not drawn) + Cc1ccccc1N=Nc1ccc(NC(=O)c2ccnn2C)c(C)c1 | 16.4%
12 | COc1cccc2c1C(=O)c1c(O)c3c(c(O)c1C2=O)CC(O)(C(=O)CO)CC3OC1CC(N)C(O)C(C)O1 (stereo not drawn) + Cc1ccccc1N=Nc1ccc(NC(=O)c2ccnn2C)c(C)c1 | 0.73%
13 | Nc1ccn(C2OC(CO)C(O)C2(F)F)c(=O)n1 (stereo not drawn) + Cc1ccccc1N=Nc1ccc(NC(=O)c2ccnn2C)c(C)c1 | 8.53%

Same assay, conditions: second compound 3.16 µM; first compound 10 µM; active compounds read low

Row | Compound | viability, T/C
14 | CC(C)c1c(-c2ccccc2)nc2c(C#N)c[nH]n2c1=O + CC(CO)NC(=O)c1cc(-c2ccc(Cl)cc2)nn(-c2cnn(C)c2)c1=O | 84.2%
15 | COc1cc(C2c3cc4c(cc3C(OC3OC5COC(C)OC5C(O)C3O)C3COC(=O)C23)OCO4)cc(OC)c1O (stereo not drawn) + Cc1ccccc1N=Nc1ccc(NC(=O)c2ccnn2C)c(C)c1 | 9.21%
16 | COc1cccc2c1C(=O)c1c(O)c3c(c(O)c1C2=O)CC(O)(C(=O)CO)CC3OC1CC(N)C(O)C(C)O1 (stereo not drawn) + Cc1ccccc1N=Nc1ccc(NC(=O)c2ccnn2C)c(C)c1 | 1.88%
17 | Nc1ccn(C2OC(CO)C(O)C2(F)F)c(=O)n1 (stereo not drawn) + Cc1ccccc1N=Nc1ccc(NC(=O)c2ccnn2C)c(C)c1 | 5.4%

Same assay, conditions: second compound 10 µM; first compound 0.000316 µM; active compounds read low

Row | Compound | viability, T/C
18 | CC[C@@]1(O)C(=O)OCc2c1cc1n(c2=O)Cc2cc3c(CN(C)C)c(O)ccc3nc2-1 + Cc1ccccc1N=Nc1ccc(NC(=O)c2ccnn2C)c(C)c1 | 54.4%

Same assay, conditions: second compound 10 µM; first compound 0.001 µM; active compounds read low

Row | Compound | viability, T/C
19 | CC[C@@]1(O)C(=O)OCc2c1cc1n(c2=O)Cc2cc3c(CN(C)C)c(O)ccc3nc2-1 + Cc1ccccc1N=Nc1ccc(NC(=O)c2ccnn2C)c(C)c1 | 61.1%

Same assay, conditions: second compound 10 µM; first compound 0.00316 µM; active compounds read low

Row | Compound | viability, T/C
20 | CC[C@@]1(O)C(=O)OCc2c1cc1n(c2=O)Cc2cc3c(CN(C)C)c(O)ccc3nc2-1 + Cc1ccccc1N=Nc1ccc(NC(=O)c2ccnn2C)c(C)c1 | 52.6%
21 | Nc1ncn(C2CC(O)C(CO)O2)c(=O)n1 (stereo not drawn) + Cc1ccccc1N=Nc1ccc(NC(=O)c2ccnn2C)c(C)c1 | 63%

Same assay, conditions: second compound 10 µM; first compound 0.01 µM; active compounds read low

Row | Compound | viability, T/C
22 | CC[C@@]1(O)C(=O)OCc2c1cc1n(c2=O)Cc2cc3c(CN(C)C)c(O)ccc3nc2-1 + Cc1ccccc1N=Nc1ccc(NC(=O)c2ccnn2C)c(C)c1 | 55.6%
23 | Nc1ncn(C2CC(O)C(CO)O2)c(=O)n1 (stereo not drawn) + Cc1ccccc1N=Nc1ccc(NC(=O)c2ccnn2C)c(C)c1 | 65.3%

Same assay, conditions: second compound 10 µM; first compound 0.0316 µM; active compounds read low

Row | Compound | viability, T/C
24 | CC(C)c1c(-c2ccccc2)nc2c(C#N)c[nH]n2c1=O + CC(CO)NC(=O)c1cc(-c2ccc(Cl)cc2)nn(-c2cnn(C)c2)c1=O | 69.7%
25 | CC[C@@]1(O)C(=O)OCc2c1cc1n(c2=O)Cc2cc3c(CN(C)C)c(O)ccc3nc2-1 + Cc1ccccc1N=Nc1ccc(NC(=O)c2ccnn2C)c(C)c1 | 28.9%
26 | COc1cc(C2c3cc4c(cc3C(OC3OC5COC(C)OC5C(O)C3O)C3COC(=O)C23)OCO4)cc(OC)c1O (stereo not drawn) + Cc1ccccc1N=Nc1ccc(NC(=O)c2ccnn2C)c(C)c1 | 60.8%
27 | COc1cccc2c1C(=O)c1c(O)c3c(c(O)c1C2=O)CC(O)(C(=O)CO)CC3OC1CC(N)C(O)C(C)O1 (stereo not drawn) + Cc1ccccc1N=Nc1ccc(NC(=O)c2ccnn2C)c(C)c1 | 17.2%
28 | Nc1ccn(C2OC(CO)C(O)C2(F)F)c(=O)n1 (stereo not drawn) + Cc1ccccc1N=Nc1ccc(NC(=O)c2ccnn2C)c(C)c1 | 8.79%
29 | Nc1ncn(C2CC(O)C(CO)O2)c(=O)n1 (stereo not drawn) + Cc1ccccc1N=Nc1ccc(NC(=O)c2ccnn2C)c(C)c1 | 58.7%

Same assay, conditions: second compound 10 µM; first compound 0.1 µM; active compounds read low

Row | Compound | viability, T/C
30 | CC(C)c1c(-c2ccccc2)nc2c(C#N)c[nH]n2c1=O + CC(CO)NC(=O)c1cc(-c2ccc(Cl)cc2)nn(-c2cnn(C)c2)c1=O | 67.3%
31 | CC[C@@]1(O)C(=O)OCc2c1cc1n(c2=O)Cc2cc3c(CN(C)C)c(O)ccc3nc2-1 + Cc1ccccc1N=Nc1ccc(NC(=O)c2ccnn2C)c(C)c1 | 16.2%
32 | COc1cc(C2c3cc4c(cc3C(OC3OC5COC(C)OC5C(O)C3O)C3COC(=O)C23)OCO4)cc(OC)c1O (stereo not drawn) + Cc1ccccc1N=Nc1ccc(NC(=O)c2ccnn2C)c(C)c1 | 52.7%
33 | COc1cccc2c1C(=O)c1c(O)c3c(c(O)c1C2=O)CC(O)(C(=O)CO)CC3OC1CC(N)C(O)C(C)O1 (stereo not drawn) + Cc1ccccc1N=Nc1ccc(NC(=O)c2ccnn2C)c(C)c1 | 12.1%
34 | Nc1ccn(C2OC(CO)C(O)C2(F)F)c(=O)n1 (stereo not drawn) + Cc1ccccc1N=Nc1ccc(NC(=O)c2ccnn2C)c(C)c1 | 9.42%
35 | Nc1ncn(C2CC(O)C(CO)O2)c(=O)n1 (stereo not drawn) + Cc1ccccc1N=Nc1ccc(NC(=O)c2ccnn2C)c(C)c1 | 61.6%

Same assay, conditions: second compound 10 µM; first compound 0.316 µM; active compounds read low

Row | Compound | viability, T/C
36 | CC(C)c1c(-c2ccccc2)nc2c(C#N)c[nH]n2c1=O + CC(CO)NC(=O)c1cc(-c2ccc(Cl)cc2)nn(-c2cnn(C)c2)c1=O | 71.2%
37 | COc1cc(C2c3cc4c(cc3C(OC3OC5COC(C)OC5C(O)C3O)C3COC(=O)C23)OCO4)cc(OC)c1O (stereo not drawn) + Cc1ccccc1N=Nc1ccc(NC(=O)c2ccnn2C)c(C)c1 | 27.2%
38 | COc1cccc2c1C(=O)c1c(O)c3c(c(O)c1C2=O)CC(O)(C(=O)CO)CC3OC1CC(N)C(O)C(C)O1 (stereo not drawn) + Cc1ccccc1N=Nc1ccc(NC(=O)c2ccnn2C)c(C)c1 | 0.42%
39 | Nc1ccn(C2OC(CO)C(O)C2(F)F)c(=O)n1 (stereo not drawn) + Cc1ccccc1N=Nc1ccc(NC(=O)c2ccnn2C)c(C)c1 | 7.46%
40 | Nc1ncn(C2CC(O)C(CO)O2)c(=O)n1 (stereo not drawn) + Cc1ccccc1N=Nc1ccc(NC(=O)c2ccnn2C)c(C)c1 | 62.8%

Same assay, conditions: second compound 10 µM; first compound 1 µM; active compounds read low

Row | Compound | viability, T/C
41 | CC(C)c1c(-c2ccccc2)nc2c(C#N)c[nH]n2c1=O + CC(CO)NC(=O)c1cc(-c2ccc(Cl)cc2)nn(-c2cnn(C)c2)c1=O | 63.8%
42 | COc1cc(C2c3cc4c(cc3C(OC3OC5COC(C)OC5C(O)C3O)C3COC(=O)C23)OCO4)cc(OC)c1O (stereo not drawn) + Cc1ccccc1N=Nc1ccc(NC(=O)c2ccnn2C)c(C)c1 | 23.3%
43 | COc1cccc2c1C(=O)c1c(O)c3c(c(O)c1C2=O)CC(O)(C(=O)CO)CC3OC1CC(N)C(O)C(C)O1 (stereo not drawn) + Cc1ccccc1N=Nc1ccc(NC(=O)c2ccnn2C)c(C)c1 | 0.36%
44 | Nc1ccn(C2OC(CO)C(O)C2(F)F)c(=O)n1 (stereo not drawn) + Cc1ccccc1N=Nc1ccc(NC(=O)c2ccnn2C)c(C)c1 | 10.9%
45 | Nc1ncn(C2CC(O)C(CO)O2)c(=O)n1 (stereo not drawn) + Cc1ccccc1N=Nc1ccc(NC(=O)c2ccnn2C)c(C)c1 | 45%

Same assay, conditions: second compound 10 µM; first compound 3.16 µM; active compounds read low

Row | Compound | viability, T/C
46 | CC(C)c1c(-c2ccccc2)nc2c(C#N)c[nH]n2c1=O + CC(CO)NC(=O)c1cc(-c2ccc(Cl)cc2)nn(-c2cnn(C)c2)c1=O | 62.6%
47 | COc1cc(C2c3cc4c(cc3C(OC3OC5COC(C)OC5C(O)C3O)C3COC(=O)C23)OCO4)cc(OC)c1O (stereo not drawn) + Cc1ccccc1N=Nc1ccc(NC(=O)c2ccnn2C)c(C)c1 | 18.9%
48 | COc1cccc2c1C(=O)c1c(O)c3c(c(O)c1C2=O)CC(O)(C(=O)CO)CC3OC1CC(N)C(O)C(C)O1 (stereo not drawn) + Cc1ccccc1N=Nc1ccc(NC(=O)c2ccnn2C)c(C)c1 | 1.18%
49 | Nc1ccn(C2OC(CO)C(O)C2(F)F)c(=O)n1 (stereo not drawn) + Cc1ccccc1N=Nc1ccc(NC(=O)c2ccnn2C)c(C)c1 | 9.28%

Same assay, conditions: second compound 10 µM; first compound 10 µM; active compounds read low

Row | Compound | viability, T/C
50 | CC(C)c1c(-c2ccccc2)nc2c(C#N)c[nH]n2c1=O + CC(CO)NC(=O)c1cc(-c2ccc(Cl)cc2)nn(-c2cnn(C)c2)c1=O | 68.5%
51 | COc1cc(C2c3cc4c(cc3C(OC3OC5COC(C)OC5C(O)C3O)C3COC(=O)C23)OCO4)cc(OC)c1O (stereo not drawn) + Cc1ccccc1N=Nc1ccc(NC(=O)c2ccnn2C)c(C)c1 | 11.1%
52 | COc1cccc2c1C(=O)c1c(O)c3c(c(O)c1C2=O)CC(O)(C(=O)CO)CC3OC1CC(N)C(O)C(C)O1 (stereo not drawn) + Cc1ccccc1N=Nc1ccc(NC(=O)c2ccnn2C)c(C)c1 | 4.37%
53 | Nc1ccn(C2OC(CO)C(O)C2(F)F)c(=O)n1 (stereo not drawn) + Cc1ccccc1N=Nc1ccc(NC(=O)c2ccnn2C)c(C)c1 | 6.09%
